# Assay results: patent US10562891B2, “Quinazolinones as PARP14 inhibitors” (Ribon Therapeutics Inc., priority 2017, dated 2020)
# Structures can show the parent of a compound that is named as a salt.
# Molecular target: catalytic domain of human PARP14 (Homo sapiens (Human), UniProt Q460N5)
# Experiment: Enzymatic assay for inhibition of PARP14 (DELFIA, auto-modification with biotin-NAD)
# Type: biochemical
# Settings: auto-modification of PARP14 by biotin-NAD, 50 nM PARP14, 3 μM biotin-NAD
# Procedure: An N-terminal His-TEV fusion tag was used to purify the protein from cell lysates. The His-TEV tag was left on the protein for use in the enzymatic assay.
# Enzymatic inhibition of PARP14 was measured using a dissociation-enhanced lanthanide fluorescence immunoassay (DELFIA) monitoring the auto-modification of PARP14 by biotinylated nicotinamide adenine dinucleotide (biotin-NAD). 1 μL of a dose response curve of each test compound was spotted in 384-well nickel-coated white microplates (Thermo) using a Mosquito (TTP Labtech). Reactions were performed in a 50 μL volume by adding 40 μL of PARP14 in assay buffer (20 mM HEPES pH==8, 100 mM NaCl, 0.1% bovine serum albumin, 2 mM DTT and 0.002%0 Tween20), incubating with test compound at 25° C. for 30 min, then adding 10 μL of biotin-NAD (Biolog). The final concentrations of PARP14 and biotin-NAD are 50 nM and 3 μM, respectively. Reactions proceeded at 25° C. for 3 h, then were quenched with 5 μL of 10 mM unmodified nicotinamide adenine dinucleotide (Sigma-Aldrich). The quenched reactions were washed 3 times with 100 μL of TBST wash buffer (50 mM Tris-HCl, 150 mM NaCl and 0.1% Tween20). Next, to the washed and dried plate was added 25 μL of DELFIA Europium-N1 streptavidin (Perkin Elmer) diluted in DELFIA assay buffer (Perkin Elmer). After a 30 min incubation at 25° C., the plate was washed 5 times with TBST wash buffer. Finally, 25 μL of DELFIA enhancement solution was added. After a 5 min incubation the plate was read on an Envision platereader equipped with a LANCE/DELFIA top mirror (Perkin Elmer) using excitation of 340 nm and emission of 615 nm to measure the amount of Europium present in each well, informing on the amount of biotin-NAD that was transferred in the automodification reaction.
# [formula] where ex615cmpd is the emission from the compound treated well, ex615min is the emission from the rucaparib treated positive control well and ex615max is the emission from the DMSO treated negative control well.
# The % inhibition values were plotted as a function of compound concentration and the following 4-parameter fit was applied to derive the IC50 values:
# [formula] where top and bottom are normally allowed to float, but may be fixed at 100 or 0 respectively in a 3-parameter fit. The Hill Coefficient is normally allowed to float but may also be fixed at 1 in a 3-parameter fit. Y is the % inhibition and X is the compound concentration.
# Chain of catalytic domain of human PARP14 (Q460N5 1611-1801): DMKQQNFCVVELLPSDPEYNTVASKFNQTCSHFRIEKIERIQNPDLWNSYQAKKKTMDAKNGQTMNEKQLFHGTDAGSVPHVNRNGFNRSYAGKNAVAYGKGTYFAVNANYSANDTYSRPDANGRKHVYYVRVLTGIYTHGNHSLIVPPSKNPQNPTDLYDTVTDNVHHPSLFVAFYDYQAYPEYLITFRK
row,SMILES,IC50
1,"O=c1[nH]c(CS[C@H]2CCNC[C@H](F)C2)nc2cc(NC3CCCC3)cc(F)c12 (relative stereo) [Example 240, 7-(Cyclopentylamino)-5-fluoro-2-(((trans-6-fluoroazepan-4-yl)thio)methyl)quinazolin-4(3H)-one]",< 1000 nM
2,"O=c1[nH]c(CS[C@H]2CCNC[C@@H](F)C2)nc2cc(NC3CCCC3)cc(F)c12 (relative stereo) [Example 241, 7-(Cyclopentylamino)-5-fluoro-2-(((cis-6-fluoroazepan-4-yl)thio)methyl)quinazolin-4(3H)-one]",< 1000 nM
3,"O=c1[nH]c(CS[C@@H]2CCNC[C@H]2F)nc2cc(OCC3CC3)cc(F)c12 (relative stereo) [Example 297, 7-(Cyclopropylmethoxy)-5-fluoro-2-(((trans-3-fluoropiperidin-4-yl)thio)methyl)quinazolin-4(3H)-one hydrochloride]",1000 to 10000 nM
4,"CN1CC[C@H](COc2cc(F)c3c(=O)[nH]c(CSC4CCOCC4)nc3c2)[C@@H](F)C1 (relative stereo) [Example 326, 5-Fluoro-7-(((trans)-3-fluoro-1-methylpiperidin-4-yl)methoxy)-2-(((tetrahydro-2H-pyran-4-yl)thio)methyl)quinazolin-4(3H)-one]",< 1000 nM
5,O=c1[nH]c(CS[C@H]2CC[C@H](O)CC2)nc2cc(N[C@@H]3CCC[C@@H]3F)cc(F)c12 (relative stereo) [Example 341],< 1000 nM
6,O=c1[nH]c(CSC2CCOCC2)nc2cc(OC[C@H]3CCNC[C@@H]3F)cc(F)c12 (relative stereo) [Example 352],1000 to 10000 nM
7,CN1CC[C@H](SCc2nc3cc(NC4CCCC4)cc(F)c3c(=O)[nH]2)[C@@H](F)C1 (relative stereo) [Example 412],< 1000 nM
8,"O=c1[nH]c(CS[C@@H]2CCNCC2F)nc2cc(OCC3CC3)cc(F)c12 (stereo in doubt) [Example 295, 7-(Cyclopropylmethoxy)-5-fluoro-2-(((cis-3-fluoropiperidin-4-yl)thio)methyl)quinazolin-4(3H)-one hydrochloride]",< 1000 nM
9,"N#Cc1ccc2c(=O)[nH]c(CSC3CCOCC3)nc2c1 [Example 1, 4-Oxo-2-(((tetrahydro-2H-pyran-4-yl)thio)methyl)-3,4-dihydroquinazoline-7-carbonitrile]",> 10000 nM
10,Cc1ccc2nc(CSC3CCOCC3)[nH]c(=O)c2c1 [Example 3],1000 to 10000 nM
11,COc1ccc2nc(CSC3CCOCC3)[nH]c(=O)c2c1 [Example 4],> 10000 nM
12,COc1cccc2c(=O)[nH]c(CSC3CCOCC3)nc12 [Example 6],1000 to 10000 nM
13,O=c1[nH]c(CSC2CCOCC2)nc2c(Cc3ccccc3)cccc12 [Example 10],> 10000 nM
14,O=c1[nH]c(CSC2CCOCC2)nc2cc(Cc3ccccc3)ccc12 [Example 11],> 10000 nM
15,"Cc1cccc2c(=O)[nH]c(CSCC3CCOCC3)nc12 [Example 12, 8-Methyl-2-((((tetrahydro-2H-pyran-4-yl)methyl)thio)methyl)quinazolin-4(3H)-one]",1000 to 10000 nM
16,"Cc1cccc2c(=O)[nH]c(CSC3CCNCC3)nc12 [Example 13, 8-Methyl-2-((piperidin-4-ylthio)methyl)quinazolin-4(3H)-one Trifluoroacetate]",< 1000 nM
17,"Cc1cccc2c(=O)[nH]c(CSC3CCNC3)nc12 (stereo not drawn) [Example 15, 8-Methyl-2-((pyrrolidin-3-ylthio)methyl)quinazolin-4(3H)-one trifluoroacetate]",1000 to 10000 nM
18,"Cc1cccc2c(=O)[nH]c(CSC3CCN(Cc4ccccn4)CC3)nc12 [Example 18, 8-Methyl-2-(((1-(pyridin-2-ylmethyl)piperidin-4-yl)thio)methyl)quinazolin-4(3H)-one]",< 1000 nM
19,"Cc1cccc2c(=O)[nH]c(CS(=O)(=O)C3CCOCC3)nc12 [Example 19, 8-Methyl-2-(((tetrahydro-2H-pyran-4-yl)sulfonyl)methyl)quinazolin-4(3H)-one]",> 10000 nM
20,"Cc1cccc2c(=O)[nH]c(CSC3CCCNCC3)nc12 (stereo not drawn) [Example 20, 2-((Azepan-4-ylthio)methyl)-8-methylquinazolin-4(3H)-one Trifluoroacetate]",< 1000 nM
21,"Cc1cccc2c(=O)[nH]c(CSC3CCC(N(C)C)CC3)nc12 (stereo not drawn) [Example 21, 2-(((4-(Dimethylamino)cyclohexyl)thio)methyl)-8-methylquinazolin-4(3H)-one]",< 1000 nM
22,"Cc1cccc2c(=O)[nH]c(CSC3CCC(O)CC3)nc12 (stereo not drawn) [Example 22, 2-(((4-Hydroxycyclohexyl)thio)methyl)-8-methylquinazolin-4(3H)-one]",< 1000 nM
23,"Cc1cccc2c(=O)[nH]c(CS[C@H]3CC[C@H](O)CC3)nc12 [Example 23, 2-((((trans)-4-Hydroxycyclohexyl)thio)methyl)-8-methylquinazolin-4(3H)-one]",< 1000 nM

# The next lines start with the values.
row,IC50,SMILES
1,1000 to 10000 nM,"NC[C@H]1CC[C@@H](SCc2nc3cc(NC4CCCC4)cc(F)c3c(=O)[nH]2)CO1 (relative stereo) [Example 242, 2-((((cis)-6-(Aminomethyl)tetrahydro-2H-pyran-3-yl)thio)methyl)-7-(cyclopentylamino)-5-fluoroquinazolin-4(3H)-one bis Hydrochloride]"
2,> 10000 nM,"Cc1cccc2c(=O)[nH]c(CS[C@@H]3CCC[C@H](CO)O3)nc12 (relative stereo) [Example 260, 2-(((Cis-6-(hydroxymethyl)tetrahydro-2H-pyran-2-yl)thio)methyl)-8-methylquinazolin-4(3H)-one]"
3,< 1000 nM,"O=c1[nH]c(CS[C@H]2CCNC[C@H]2F)nc2cc(NCC3CCC3)c(F)cc12 (relative stereo) [Example 303, 7-((Cyclobutylmethyl)amino)-6-fluoro-2-(((cis-3-fluoropiperidin-4-yl)thio)methyl)quinazolin-4(3H)-one hydrochloride]"
4,< 1000 nM,"CN1CC[C@H](COc2cc(F)c3c(=O)[nH]c(CS[C@H]4CC[C@H](O)CC4)nc3c2)[C@@H](F)C1 (relative stereo) [Example 334, 5-Fluoro-7-(((trans)-3-fluoro-1-methylpiperidin-4-yl)methoxy)-2-((((trans)-4-hydroxycyclohexyl)thio)methyl)quinazolin-4(3H)-one trifluoroacetic acid]"
5,< 1000 nM,O=c1[nH]c(CS[C@H]2CC[C@H](O)CC2)nc2cc(N[C@H]3CCC[C@@H]3F)cc(F)c12 (relative stereo) [Example 340]
6,< 1000 nM,O=c1[nH]c(CSC2CCOCC2)nc2cc(OC[C@H]3CCC[C@H]3O)cc(F)c12 (relative stereo) [Example 359]
7,< 1000 nM,O=c1[nH]c(CSC2CCOCC2)nc2cc(OC[C@H]3CNC[C@H]3F)cc(F)c12 (relative stereo) [Example 371]
8,< 1000 nM,CN1C[C@H](COc2cc(F)c3c(=O)[nH]c(CSC4CCOCC4)nc3c2)[C@H](F)C1 (relative stereo) [Example 372]
9,< 1000 nM,CN1CC[C@@H](COc2cc(F)c3c(=O)[nH]c(CSC4CCOCC4)nc3c2)[C@@H](F)C1 (relative stereo) [Example 388]
10,1000 to 10000 nM,CN1CC[C@H](CNc2cc3nc(CSC4CCOCC4)[nH]c(=O)c3c(F)c2F)[C@H](F)C1 (relative stereo) [Example 408]
11,< 1000 nM,CN1CC[C@@H](SCc2nc3cc(NC4CCCC4)cc(F)c3c(=O)[nH]2)[C@@H](F)C1 (relative stereo) [Example 413]
12,< 1000 nM,Cc1cccc2c(=O)[nH]c(CSC3CCOCC3)nc12 [Example 2]
13,1000 to 10000 nM,O=c1[nH]c(CSC2CCOCC2)nc2c(Cl)cccc12 [Example 5]
14,> 10000 nM,Cc1cccc2c(=O)[nH]c(C(C)SC3CCOCC3)nc12 (stereo not drawn) [Example 7]
15,< 1000 nM,Cc1ccc(F)c2c(=O)[nH]c(CSC3CCOCC3)nc12 [Example 8]
16,1000 to 10000 nM,Cc1cccc2nc(CSC3CCOCC3)[nH]c(=O)c12 [Example 9]
17,1000 to 10000 nM,"Cc1cccc2c(=O)[nH]c(CSC3CCN(C)CC3)nc12 [Example 14, 8-Methyl-2-(((1-methylpiperidin-4-yl)thio)methyl)quinazolin-4(3H)-one]"
18,1000 to 10000 nM,"Cc1cccc2c(=O)[nH]c(CSC3CCN(C)C3)nc12 (stereo not drawn) [Example 16, 8-Methyl-2-(((1-methylpyrrolidin-3-yl)thio)methyl)quinazolin-4(3H)-one]"
19,1000 to 10000 nM,"CC(=O)N1CCC(SCc2nc3c(C)cccc3c(=O)[nH]2)CC1 [Example 17, 2-(((1-Acetylpiperidin-4-yl)thio)methyl)-8-methylquinazolin-4(3H)-one]"
